Source: ChEMBL document CHEMBL3991601, “The target landscape of clinical kinase drugs” (Science, 2017)
Active and inactive are the calls of the source. Rule as the data show it, for most assays here: actives have a measured Kd and inactives only a lower limit.

Assays:
[1] = biological target: T1, Acyl-CoA dehydrogenase family member 11 (Homo sapiens, UniProt Q709F0)
T1 sequence (Q709F0 whole entry): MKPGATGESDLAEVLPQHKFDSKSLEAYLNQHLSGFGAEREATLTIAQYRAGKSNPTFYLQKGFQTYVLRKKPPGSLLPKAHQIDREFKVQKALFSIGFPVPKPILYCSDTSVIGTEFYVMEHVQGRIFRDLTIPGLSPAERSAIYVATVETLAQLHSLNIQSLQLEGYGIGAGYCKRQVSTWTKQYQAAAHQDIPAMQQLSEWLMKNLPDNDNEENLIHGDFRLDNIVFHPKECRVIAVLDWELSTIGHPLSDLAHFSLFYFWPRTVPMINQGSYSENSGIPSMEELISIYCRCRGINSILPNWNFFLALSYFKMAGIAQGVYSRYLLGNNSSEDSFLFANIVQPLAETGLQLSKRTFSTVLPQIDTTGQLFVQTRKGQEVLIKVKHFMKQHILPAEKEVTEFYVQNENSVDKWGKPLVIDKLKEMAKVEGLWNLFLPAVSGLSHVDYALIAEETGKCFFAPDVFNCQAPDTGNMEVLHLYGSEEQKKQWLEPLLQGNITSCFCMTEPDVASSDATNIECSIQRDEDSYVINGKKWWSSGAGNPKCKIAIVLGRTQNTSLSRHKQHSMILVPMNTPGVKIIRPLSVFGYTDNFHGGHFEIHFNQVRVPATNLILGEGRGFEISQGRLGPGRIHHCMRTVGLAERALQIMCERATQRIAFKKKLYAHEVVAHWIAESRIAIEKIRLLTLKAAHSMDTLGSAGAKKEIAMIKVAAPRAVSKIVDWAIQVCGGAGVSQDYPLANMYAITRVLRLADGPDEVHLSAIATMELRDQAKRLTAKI

[2] = biological target: Tyrosine-protein kinase BTK (Homo sapiens, UniProt Q06187)
[3] = biological target: Mitotic checkpoint serine/threonine-protein kinase BUB1 (Homo sapiens, UniProt O43683)
[4] = biological target: Cyclin-dependent kinase 12 (Homo sapiens, UniProt Q9NYV4)
[5] = biological target: T2, Ferrochelatase, mitochondrial (Homo sapiens, UniProt P22830)
T2 sequence (P22830 whole entry): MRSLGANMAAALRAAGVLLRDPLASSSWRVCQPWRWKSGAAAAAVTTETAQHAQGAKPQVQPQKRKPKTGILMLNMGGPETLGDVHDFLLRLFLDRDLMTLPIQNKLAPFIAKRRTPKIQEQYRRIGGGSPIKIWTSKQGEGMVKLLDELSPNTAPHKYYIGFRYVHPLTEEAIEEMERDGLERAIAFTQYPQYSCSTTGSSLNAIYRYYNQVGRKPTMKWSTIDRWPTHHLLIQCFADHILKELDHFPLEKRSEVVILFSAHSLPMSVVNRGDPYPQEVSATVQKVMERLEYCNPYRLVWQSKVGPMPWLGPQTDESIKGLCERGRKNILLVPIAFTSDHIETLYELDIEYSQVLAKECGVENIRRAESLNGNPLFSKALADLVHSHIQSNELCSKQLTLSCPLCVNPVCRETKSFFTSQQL

[6] = biological target: Inosine-5'-monophosphate dehydrogenase 2 (Homo sapiens, UniProt P12268)
[7] = biological target: Dual specificity mitogen-activated protein kinase kinase 2 (Homo sapiens, UniProt P36507)
[8] = biological target: Mitogen-activated protein kinase 9 (Homo sapiens, UniProt P45984)
[9] = biological target: Maternal embryonic leucine zipper kinase (Homo sapiens, UniProt Q14680)
[10] = biological target: 5'-AMP-activated protein kinase catalytic subunit alpha-1 (Homo sapiens, UniProt Q13131)
[11] = biological target: Ribosomal protein S6 kinase alpha-5 (Homo sapiens, UniProt O75582)
[12] = biological target: Proto-oncogene tyrosine-protein kinase Src (Homo sapiens, UniProt P12931)
[13] = biological target: T3, Tyrosine-protein kinase Tec (Homo sapiens, UniProt P42680)
T3 sequence (P42680 whole entry): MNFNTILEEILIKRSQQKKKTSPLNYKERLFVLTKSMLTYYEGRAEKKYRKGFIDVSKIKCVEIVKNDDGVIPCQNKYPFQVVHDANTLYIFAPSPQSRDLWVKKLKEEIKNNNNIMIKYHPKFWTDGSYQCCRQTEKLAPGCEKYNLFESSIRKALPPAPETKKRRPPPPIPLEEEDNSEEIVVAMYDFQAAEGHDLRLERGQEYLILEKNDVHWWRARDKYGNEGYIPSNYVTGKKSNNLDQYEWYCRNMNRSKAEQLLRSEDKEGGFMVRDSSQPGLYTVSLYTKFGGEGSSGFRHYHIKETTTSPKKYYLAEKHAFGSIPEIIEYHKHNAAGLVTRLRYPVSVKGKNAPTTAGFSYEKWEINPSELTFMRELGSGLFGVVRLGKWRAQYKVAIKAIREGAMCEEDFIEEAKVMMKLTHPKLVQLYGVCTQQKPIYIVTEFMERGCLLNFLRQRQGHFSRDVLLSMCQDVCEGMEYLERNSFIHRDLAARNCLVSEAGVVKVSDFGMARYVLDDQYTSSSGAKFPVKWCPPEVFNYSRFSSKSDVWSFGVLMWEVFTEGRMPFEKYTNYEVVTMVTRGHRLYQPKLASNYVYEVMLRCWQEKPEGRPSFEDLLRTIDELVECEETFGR

TGF-beta receptor type-2 = TGF-beta receptor type-2 (Homo sapiens, UniProt P37173)
DNA topoisomerase 2-beta = DNA topoisomerase 2-beta (Homo sapiens, UniProt Q02880)
[14] = biological target: T4, Uncharacterized protein FLJ45252 (Homo sapiens, UniProt Q6ZSR9); conditions: read-out: Kd apparent; k-562, colo 205, sk-n-be(2) and mv-4-11
T4 sequence (Q6ZSR9 whole entry): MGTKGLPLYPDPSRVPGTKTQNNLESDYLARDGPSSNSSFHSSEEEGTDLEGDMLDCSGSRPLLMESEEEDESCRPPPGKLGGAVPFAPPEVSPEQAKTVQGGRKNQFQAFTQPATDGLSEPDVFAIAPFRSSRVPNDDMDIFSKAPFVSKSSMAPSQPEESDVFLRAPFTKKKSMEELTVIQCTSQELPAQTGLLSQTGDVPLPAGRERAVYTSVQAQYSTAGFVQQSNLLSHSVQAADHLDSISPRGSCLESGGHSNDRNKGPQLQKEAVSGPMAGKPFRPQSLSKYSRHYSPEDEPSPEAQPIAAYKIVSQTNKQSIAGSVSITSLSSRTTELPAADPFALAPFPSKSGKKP
Also: in the data inactive means no Kd found up to 30 µM.

Sequence of Proto-oncogene tyrosine-protein kinase Src (P12931 2-536 limits assumed): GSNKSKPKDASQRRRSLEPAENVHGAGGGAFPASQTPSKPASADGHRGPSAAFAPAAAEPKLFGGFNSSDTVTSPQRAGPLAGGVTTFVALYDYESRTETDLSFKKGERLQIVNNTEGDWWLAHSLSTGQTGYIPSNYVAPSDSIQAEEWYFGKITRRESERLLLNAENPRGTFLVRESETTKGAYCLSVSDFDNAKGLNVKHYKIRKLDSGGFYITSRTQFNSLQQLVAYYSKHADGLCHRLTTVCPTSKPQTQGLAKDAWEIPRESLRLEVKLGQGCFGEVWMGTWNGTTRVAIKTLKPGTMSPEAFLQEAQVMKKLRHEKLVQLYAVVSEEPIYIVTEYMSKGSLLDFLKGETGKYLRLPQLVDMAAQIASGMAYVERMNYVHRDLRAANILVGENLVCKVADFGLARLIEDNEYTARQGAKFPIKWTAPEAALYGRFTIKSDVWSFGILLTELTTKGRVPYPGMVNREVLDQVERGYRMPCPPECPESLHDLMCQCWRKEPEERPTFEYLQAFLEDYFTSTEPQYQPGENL
Sequence of Ribosomal protein S6 kinase alpha-5 (O75582 whole entry): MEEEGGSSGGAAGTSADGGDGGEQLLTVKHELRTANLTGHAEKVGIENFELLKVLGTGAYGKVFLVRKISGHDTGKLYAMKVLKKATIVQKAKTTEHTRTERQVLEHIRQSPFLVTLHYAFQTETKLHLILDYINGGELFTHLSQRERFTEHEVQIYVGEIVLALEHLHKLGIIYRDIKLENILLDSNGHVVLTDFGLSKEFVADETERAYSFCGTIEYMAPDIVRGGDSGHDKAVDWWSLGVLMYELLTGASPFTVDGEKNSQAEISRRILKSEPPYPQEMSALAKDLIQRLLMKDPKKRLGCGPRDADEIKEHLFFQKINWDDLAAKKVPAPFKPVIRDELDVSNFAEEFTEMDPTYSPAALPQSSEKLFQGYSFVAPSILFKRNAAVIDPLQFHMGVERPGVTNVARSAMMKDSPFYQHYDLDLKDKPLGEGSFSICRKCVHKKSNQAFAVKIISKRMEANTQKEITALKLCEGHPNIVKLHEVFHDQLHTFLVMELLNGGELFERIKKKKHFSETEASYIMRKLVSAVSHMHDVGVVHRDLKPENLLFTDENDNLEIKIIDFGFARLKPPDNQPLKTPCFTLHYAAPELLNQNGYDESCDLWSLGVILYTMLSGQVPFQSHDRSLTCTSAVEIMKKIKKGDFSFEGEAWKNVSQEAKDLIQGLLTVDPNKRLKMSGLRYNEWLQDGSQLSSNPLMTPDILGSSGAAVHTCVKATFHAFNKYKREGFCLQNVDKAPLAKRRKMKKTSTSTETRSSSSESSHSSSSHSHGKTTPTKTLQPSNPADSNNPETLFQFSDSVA
Sequence of Tyrosine-protein kinase BTK (Q06187 whole entry): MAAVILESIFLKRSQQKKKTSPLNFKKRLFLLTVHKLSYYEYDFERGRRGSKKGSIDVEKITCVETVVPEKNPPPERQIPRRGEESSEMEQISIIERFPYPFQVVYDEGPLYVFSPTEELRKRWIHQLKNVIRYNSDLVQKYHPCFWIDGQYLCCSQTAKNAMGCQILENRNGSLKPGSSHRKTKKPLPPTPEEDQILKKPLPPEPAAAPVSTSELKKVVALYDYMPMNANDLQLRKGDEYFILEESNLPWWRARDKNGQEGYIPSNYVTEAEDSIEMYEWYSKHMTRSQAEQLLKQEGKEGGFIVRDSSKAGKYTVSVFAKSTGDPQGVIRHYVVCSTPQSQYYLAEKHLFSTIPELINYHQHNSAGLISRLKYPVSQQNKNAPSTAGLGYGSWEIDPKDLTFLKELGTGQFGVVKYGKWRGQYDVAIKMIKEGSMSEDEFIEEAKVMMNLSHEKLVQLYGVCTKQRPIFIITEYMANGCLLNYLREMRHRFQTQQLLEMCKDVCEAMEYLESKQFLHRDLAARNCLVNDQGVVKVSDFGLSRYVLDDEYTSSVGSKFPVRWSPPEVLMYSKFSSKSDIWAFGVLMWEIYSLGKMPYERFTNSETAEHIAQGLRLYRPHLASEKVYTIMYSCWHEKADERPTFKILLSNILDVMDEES
Sequence of Mitogen-activated protein kinase 9 (P45984 whole entry): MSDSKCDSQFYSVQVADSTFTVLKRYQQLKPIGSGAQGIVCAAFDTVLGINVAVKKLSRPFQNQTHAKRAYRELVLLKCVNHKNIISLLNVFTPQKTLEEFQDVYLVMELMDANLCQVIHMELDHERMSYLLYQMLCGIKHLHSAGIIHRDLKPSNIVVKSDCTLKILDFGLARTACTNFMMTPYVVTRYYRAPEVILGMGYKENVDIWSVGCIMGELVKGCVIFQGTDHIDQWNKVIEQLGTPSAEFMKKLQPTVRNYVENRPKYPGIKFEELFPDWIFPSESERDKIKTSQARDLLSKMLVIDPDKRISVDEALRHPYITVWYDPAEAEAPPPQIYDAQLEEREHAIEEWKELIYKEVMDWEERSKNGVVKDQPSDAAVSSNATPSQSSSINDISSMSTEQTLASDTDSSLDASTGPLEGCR
Sequence of 5'-AMP-activated protein kinase catalytic subunit alpha-1 (Q13131 whole entry): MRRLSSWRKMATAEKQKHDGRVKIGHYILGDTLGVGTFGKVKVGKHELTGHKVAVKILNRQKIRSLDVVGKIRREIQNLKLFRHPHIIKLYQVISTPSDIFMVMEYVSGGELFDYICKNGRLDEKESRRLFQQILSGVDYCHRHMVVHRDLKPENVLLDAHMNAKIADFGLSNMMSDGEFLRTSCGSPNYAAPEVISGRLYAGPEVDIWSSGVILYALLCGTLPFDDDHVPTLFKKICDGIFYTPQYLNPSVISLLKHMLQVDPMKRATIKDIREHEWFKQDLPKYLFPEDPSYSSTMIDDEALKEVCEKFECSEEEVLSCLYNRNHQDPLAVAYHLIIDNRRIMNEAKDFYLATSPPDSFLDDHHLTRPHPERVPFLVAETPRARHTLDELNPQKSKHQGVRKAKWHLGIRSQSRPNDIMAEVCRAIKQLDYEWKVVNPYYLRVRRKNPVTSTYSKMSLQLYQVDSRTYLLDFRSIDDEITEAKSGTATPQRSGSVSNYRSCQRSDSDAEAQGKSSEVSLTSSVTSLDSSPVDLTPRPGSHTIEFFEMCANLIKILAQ
Sequence of Mitotic checkpoint serine/threonine-protein kinase BUB1 (O43683 whole entry): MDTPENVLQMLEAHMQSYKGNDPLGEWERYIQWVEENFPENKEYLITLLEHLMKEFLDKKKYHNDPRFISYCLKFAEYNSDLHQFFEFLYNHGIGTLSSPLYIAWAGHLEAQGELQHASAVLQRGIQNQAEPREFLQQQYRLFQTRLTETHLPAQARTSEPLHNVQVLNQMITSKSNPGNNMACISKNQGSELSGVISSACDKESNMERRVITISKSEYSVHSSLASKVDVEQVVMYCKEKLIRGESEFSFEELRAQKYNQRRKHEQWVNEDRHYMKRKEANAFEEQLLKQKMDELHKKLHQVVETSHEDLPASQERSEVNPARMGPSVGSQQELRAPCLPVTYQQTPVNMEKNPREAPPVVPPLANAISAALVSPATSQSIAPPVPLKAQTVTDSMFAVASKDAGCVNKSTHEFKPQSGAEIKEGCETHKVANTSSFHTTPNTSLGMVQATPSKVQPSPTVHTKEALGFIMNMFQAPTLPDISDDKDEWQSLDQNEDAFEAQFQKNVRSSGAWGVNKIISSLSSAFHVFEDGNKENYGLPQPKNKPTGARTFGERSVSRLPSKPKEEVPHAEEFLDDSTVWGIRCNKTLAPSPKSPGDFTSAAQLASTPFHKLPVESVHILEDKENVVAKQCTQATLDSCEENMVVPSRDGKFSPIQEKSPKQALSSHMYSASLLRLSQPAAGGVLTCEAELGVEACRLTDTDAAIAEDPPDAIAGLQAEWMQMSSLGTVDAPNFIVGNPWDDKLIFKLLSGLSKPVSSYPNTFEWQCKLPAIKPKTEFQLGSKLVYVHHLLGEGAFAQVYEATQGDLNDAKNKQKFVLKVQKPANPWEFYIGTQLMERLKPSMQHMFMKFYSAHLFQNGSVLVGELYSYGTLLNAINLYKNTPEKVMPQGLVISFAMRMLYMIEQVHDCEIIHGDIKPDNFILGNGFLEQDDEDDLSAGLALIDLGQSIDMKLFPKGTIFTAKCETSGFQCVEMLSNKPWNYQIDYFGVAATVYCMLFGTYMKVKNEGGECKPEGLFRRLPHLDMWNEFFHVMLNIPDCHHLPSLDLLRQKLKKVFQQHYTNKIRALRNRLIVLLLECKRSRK
Sequence of TGF-beta receptor type-2 (P37173 whole entry): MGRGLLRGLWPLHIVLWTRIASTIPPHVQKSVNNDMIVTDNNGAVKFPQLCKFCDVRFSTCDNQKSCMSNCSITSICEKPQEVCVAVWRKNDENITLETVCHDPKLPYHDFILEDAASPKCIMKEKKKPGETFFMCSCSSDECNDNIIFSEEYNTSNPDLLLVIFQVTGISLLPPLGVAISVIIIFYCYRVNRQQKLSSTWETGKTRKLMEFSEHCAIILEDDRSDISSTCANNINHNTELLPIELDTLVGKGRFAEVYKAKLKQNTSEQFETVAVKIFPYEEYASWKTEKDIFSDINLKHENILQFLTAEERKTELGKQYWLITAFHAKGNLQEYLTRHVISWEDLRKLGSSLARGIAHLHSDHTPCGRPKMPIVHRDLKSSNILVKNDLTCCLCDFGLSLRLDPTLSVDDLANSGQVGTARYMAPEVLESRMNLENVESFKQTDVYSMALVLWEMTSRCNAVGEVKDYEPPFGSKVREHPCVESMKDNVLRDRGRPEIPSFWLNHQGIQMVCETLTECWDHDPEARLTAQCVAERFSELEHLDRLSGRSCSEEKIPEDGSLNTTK
Sequence of Dual specificity mitogen-activated protein kinase kinase 2 (P36507 whole entry): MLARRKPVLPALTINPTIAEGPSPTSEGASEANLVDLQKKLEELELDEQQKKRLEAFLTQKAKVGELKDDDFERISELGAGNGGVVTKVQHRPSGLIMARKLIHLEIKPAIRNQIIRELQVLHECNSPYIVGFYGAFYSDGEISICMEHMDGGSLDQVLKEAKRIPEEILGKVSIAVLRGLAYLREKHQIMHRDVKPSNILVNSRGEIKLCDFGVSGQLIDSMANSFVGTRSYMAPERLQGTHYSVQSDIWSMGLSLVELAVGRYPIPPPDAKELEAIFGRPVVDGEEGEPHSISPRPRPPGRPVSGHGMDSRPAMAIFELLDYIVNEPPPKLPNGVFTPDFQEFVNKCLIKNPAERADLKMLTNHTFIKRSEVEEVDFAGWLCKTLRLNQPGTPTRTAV

## Cc1cc([C@@H](C)Nc2ccccc2C(=O)O)c2nc(N3CCOCC3)cc(=O)n2c1 [AZD-6482]
[1]
  Kd: > 30 µM (inactive)
[2]
  Kd: > 30 µM (inactive)
[3]
  Kd: > 30 µM (inactive)
[4]
  Kd: > 30 µM (inactive)
[5]
  Kd: > 30 µM (inactive)
[6]
  Kd: > 30 µM (inactive)
[7]
  Kd: > 30 µM (inactive)
[8]
  Kd: > 30 µM (inactive)
[9]
  Kd: > 30 µM (inactive)
[10]
  Kd: > 30 µM (inactive)
[11]
  Kd: > 30 µM (inactive)
[12]
  Kd: > 30 µM (inactive)
[13]
  Kd: > 30 µM (inactive)
TGF-beta receptor type-2
  Kd: > 30 µM (inactive)
DNA topoisomerase 2-beta
  Kd: > 30 µM (inactive)
[14]
  Kd: > 30 µM (inactive)

## Cc1cc(-c2cc(O)ccc2Cl)cc2nnc(Nc3ccc(OCCN4CCCC4)cc3)nc12
[1]
  Kd: > 30 µM (inactive)
[2]
  Kd: > 30 µM (inactive)
[3]
  Kd: > 30 µM (inactive)
[4]
  Kd: > 30 µM (inactive)
[5]
  Kd: > 30 µM (inactive)
[6]
  Kd: > 30 µM (inactive)
[7]
  Kd: > 30 µM (inactive)
[8]
  Kd: > 30 µM (inactive)
[9]
  Kd: > 30 µM (inactive)
[10]
  Kd: > 30 µM (inactive)
[11]
  Kd: > 30 µM (inactive)
[12]
  Kd: 0.001 µM (active)
[13]
  Kd: > 30 µM (inactive)
TGF-beta receptor type-2
  Kd: > 30 µM (inactive)
DNA topoisomerase 2-beta
  Kd: > 30 µM (inactive)
[14]
  Kd: > 30 µM (inactive)

## Cc1c(F)cc(C(=O)NC2CC2)cc1-c1ccc(C(=O)NCC(C)(C)C)cn1 [LOSMAPIMOD]
[1]
  Kd: > 30 µM (inactive)
[2]
  Kd: > 30 µM (inactive)
[3]
  Kd: 1.92 µM
[4]
  Kd: > 30 µM (inactive)
[5]
  Kd: > 30 µM (inactive)
[6]
  Kd: > 30 µM (inactive)
[7]
  Kd: > 30 µM (inactive)
[8]
  Kd: > 30 µM (inactive)
[9]
  Kd: > 30 µM (inactive)
[10]
  Kd: > 30 µM (inactive)
[11]
  Kd: > 30 µM (inactive)
[12]
  Kd: > 30 µM (inactive)
[13]
  Kd: > 30 µM (inactive)
TGF-beta receptor type-2
  Kd: > 30 µM (inactive)
DNA topoisomerase 2-beta
  Kd: > 30 µM (inactive)
[14]
  Kd: > 30 µM (inactive)

## O=C(c1ccc(F)c(F)c1Nc1ccc(I)cc1F)N1CC(O)([C@@H]2CCCCN2)C1 [COBIMETINIB]
[1]
  Kd: > 30 µM (inactive)
[2]
  Kd: > 30 µM (inactive)
[3]
  Kd: > 30 µM (inactive)
[4]
  Kd: > 30 µM (inactive)
[5]
  Kd: > 30 µM (inactive)
[6]
  Kd: > 30 µM (inactive)
[7]
  Kd: 0.022 µM (active)
[8]
  Kd: > 30 µM (inactive)
[9]
  Kd: > 30 µM (inactive)
[10]
  Kd: > 30 µM (inactive)
[11]
  Kd: > 30 µM (inactive)
[12]
  Kd: > 30 µM (inactive)
[13]
  Kd: > 30 µM (inactive)
TGF-beta receptor type-2
  Kd: > 30 µM (inactive)
DNA topoisomerase 2-beta
  Kd: > 30 µM (inactive)
[14]
  Kd: > 30 µM (inactive)

## Cc1ccc(S(=O)(=O)Nc2nc3ccccc3nc2Nc2ccc3nsnc3c2)cc1
[1]
  Kd: > 30 µM (inactive)
[2]
  Kd: > 30 µM (inactive)
[3]
  Kd: > 30 µM (inactive)
[4]
  Kd: > 30 µM (inactive)
[5]
  Kd: > 30 µM (inactive)
[6]
  Kd: > 30 µM (inactive)
[7]
  Kd: > 30 µM (inactive)
[8]
  Kd: > 30 µM (inactive)
[9]
  Kd: > 30 µM (inactive)
[10]
  Kd: > 30 µM (inactive)
[11]
  Kd: > 30 µM (inactive)
[12]
  Kd: > 30 µM (inactive)
[13]
  Kd: > 30 µM (inactive)
TGF-beta receptor type-2
  Kd: > 30 µM (inactive)
DNA topoisomerase 2-beta
  Kd: > 30 µM (inactive)
[14]
  Kd: > 30 µM (inactive)

## CN1CCC(CNc2ccc3ncc(-c4cccc(OC(F)(F)F)c4)n3n2)CC1 [SGI-1776]
[1]
  Kd: > 30 µM (inactive)
[2]
  Kd: > 30 µM (inactive)
[3]
  Kd: > 30 µM (inactive)
[4]
  Kd: > 30 µM (inactive)
[5]
  Kd: > 30 µM (inactive)
[6]
  Kd: > 30 µM (inactive)
[7]
  Kd: > 30 µM (inactive)
[8]
  Kd: > 30 µM (inactive)
[9]
  Kd: > 30 µM (inactive)
[10]
  Kd: > 30 µM (inactive)
[11]
  Kd: > 30 µM (inactive)
[12]
  Kd: > 30 µM (inactive)
[13]
  Kd: > 30 µM (inactive)
TGF-beta receptor type-2
  Kd: > 30 µM (inactive)
DNA topoisomerase 2-beta
  Kd: > 30 µM (inactive)
[14]
  Kd: > 30 µM (inactive)

## CCCS(=O)(=O)Nc1ccc(F)c(C(=O)c2c[nH]c3ncc(-c4ccc(Cl)cc4)cc23)c1F [VEMURAFENIB]
[1]
  Kd: > 30 µM (inactive)
[2]
  Kd: > 30 µM (inactive)
[3]
  Kd: > 30 µM (inactive)
[4]
  Kd: > 30 µM (inactive)
[5]
  Kd: 1.42 µM (active)
[6]
  Kd: > 30 µM (inactive)
[7]
  Kd: > 30 µM (inactive)
[8]
  Kd: > 30 µM (inactive)
[9]
  Kd: > 30 µM (inactive)
[10]
  Kd: > 30 µM (inactive)
[11]
  Kd: > 30 µM (inactive)
[12]
  Kd: > 30 µM (inactive)
[13]
  Kd: > 30 µM (inactive)
TGF-beta receptor type-2
  Kd: 3.4 µM (active)
DNA topoisomerase 2-beta
  Kd: > 30 µM (inactive)
[14]
  Kd: > 30 µM (inactive)
